Values quoted from earlier work, collected in patent US20040185170A1, “Method for coating drug-containing particles and formulations and dosage units formed therefrom” (priority 2003, published 2004).

Conditions: coating material; from CRC Handbook of Chemistry and Physics, 63rd Edition

SMILES	ΔHvap (heat of vaporization)
CCCCCCCCCCCCC(=O)O [Tridecanoic acid]	19,214.8 g cal mol^−1
CCCCCCCCCCCCCC(=O)O [Myristic acid]	18,380.1 g cal mol^−1
CCCCCCCCCCCC(=O)OC [Methyl laurate]	14,853.5 g cal mol^−1
CCCCCCCCCCCCCC(=O)OC [Methyl myristate]	16,051.0 g cal mol^−1
CCCCCCCC/C=C\CCCCCCCC(=O)O [Oleic acid]	20,326.7 g cal mol^−1
CCCCCCCCCCCCCCCC(=O)OC [Methyl palmitate]	17,003.5 g cal mol^−1
CCCCCCCCCCCCCCCCCC(=O)O [Stearic acid]	19,306.6 g cal mol^−1
CCCCCCCCCCCCCCCCO [Cetyl alcohol]	14,483.4 g cal mol^−1
CCCCCCCCCC(=O)O [Capric acid]	19,372.6 g cal mol^−1
CCCCCCCCCCCC(=O)O [Lauric acid]	16,585.3 g cal mol^−1
CCCCCCCCCCCCCCCC(=O)O [Palmitic acid]	17,603.6 g cal mol^−1

Conditions: normal atmospheric pressure

SMILES	temperature at which it slowly volatilizes
CCCCCCCCCCCCCCCCCC(=O)O [Stearic acid]	90-100 °C
